# Calls of active or inactive are those of the source. Cut-off read from the data, not from the text of the source, for most assays here: actives have a measured EC50 and inactives only a lower limit.
# What was measured:
# [1] = molecular target: T1, Microphthalmia-associated transcription factor (Homo sapiens, UniProt O75030); assay: TRPM1 promoter luciferase signal decrease, dose response, MITF inhibitor project, cell-based, SK-MEL-5, cherry-picked, set 3 (AID 493073); type: functional
# T1 sequence (O75030 whole entry): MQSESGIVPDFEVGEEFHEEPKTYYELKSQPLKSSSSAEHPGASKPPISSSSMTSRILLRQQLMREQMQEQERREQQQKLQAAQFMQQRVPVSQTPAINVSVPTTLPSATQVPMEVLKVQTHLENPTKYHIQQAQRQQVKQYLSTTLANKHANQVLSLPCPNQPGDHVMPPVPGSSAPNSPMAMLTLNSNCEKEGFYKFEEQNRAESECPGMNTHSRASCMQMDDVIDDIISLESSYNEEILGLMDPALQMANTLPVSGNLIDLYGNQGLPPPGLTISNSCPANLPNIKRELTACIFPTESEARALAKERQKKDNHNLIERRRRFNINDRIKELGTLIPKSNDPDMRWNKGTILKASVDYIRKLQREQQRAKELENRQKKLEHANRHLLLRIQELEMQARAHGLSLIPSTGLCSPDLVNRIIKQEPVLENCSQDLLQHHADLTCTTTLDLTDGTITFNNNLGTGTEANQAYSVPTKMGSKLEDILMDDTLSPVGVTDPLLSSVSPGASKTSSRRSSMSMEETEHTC
# Streptococcus = assay: Group A Streptococcus viability loss, dose response, counter-screen for streptokinase expression inhibitor project, luminescence, BacTiterGlo (AID 1915); type: functional, organism-based;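 note: potency for reduction of bacterial viability or growth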
# [2] = system: Streptococcus sp. 'group A'; assay: growth inhibition of control SK(-) GAS strain, dose response, counter-screen for streptokinase expression inhibitor project, luminescence, kanamycin, BacTiterGlo, confirmation (AID 1900); type: functional, organism-based
# Streptokinase A = molecular target: T2, Streptokinase A (Streptococcus pyogenes serotype M1, UniProt P10520); assay: S. pyogenes streptokinase expression inhibitors, potency, dose response, plasminogen activation absorbance, OD405 (AID 1914); type: functional, Streptococcus pyogenes M1 GAS;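 note: secreted streptokinase activity via plasminogen activation per viability signal from cell pellet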
# T2 sequence (P10520 whole entry): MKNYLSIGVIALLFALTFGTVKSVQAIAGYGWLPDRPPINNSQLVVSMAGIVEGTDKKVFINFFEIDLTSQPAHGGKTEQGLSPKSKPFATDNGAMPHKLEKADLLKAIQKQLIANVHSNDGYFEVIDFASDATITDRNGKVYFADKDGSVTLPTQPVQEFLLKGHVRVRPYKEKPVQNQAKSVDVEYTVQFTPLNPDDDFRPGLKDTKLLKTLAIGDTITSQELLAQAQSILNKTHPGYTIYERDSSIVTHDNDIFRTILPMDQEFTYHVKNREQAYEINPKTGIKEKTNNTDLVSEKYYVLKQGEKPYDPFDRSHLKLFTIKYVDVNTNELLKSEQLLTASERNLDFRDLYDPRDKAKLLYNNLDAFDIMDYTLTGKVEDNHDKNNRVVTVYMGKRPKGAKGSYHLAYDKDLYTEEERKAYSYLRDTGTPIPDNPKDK
# [3] = molecular target: Protein-tyrosine kinase 2-beta (Homo sapiens, UniProt Q14289);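 note: potency of inhibitors of PYK2 kinase phosphorylation of poly-GT substrate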
# [4] = molecular target: T3, Serine/threonine-protein phosphatase (Candida dubliniensis (strain CD36 / CBS 7987 / NCPF 3949 / NRRLY-17841) (Yeast), UniProt B9W6M3); assay: calcineurin pathway inhibitors in yeast reporter, dose response, S. cerevisiae, CDRE-lacZ, luminescence, secondary (AID 2388); type: functional, cell-based;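 note: yeast reporter cells carrying a calcineurin-responsive lacZ construct stimulated with calcium chloride; luminescent beta-galactosidase reporter signal in whole cells rather than isolated phosphatase activity; potency for inhibition where a drop in reporter signal means calcineurin blockade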
# T3 sequence (B9W6M3 whole entry): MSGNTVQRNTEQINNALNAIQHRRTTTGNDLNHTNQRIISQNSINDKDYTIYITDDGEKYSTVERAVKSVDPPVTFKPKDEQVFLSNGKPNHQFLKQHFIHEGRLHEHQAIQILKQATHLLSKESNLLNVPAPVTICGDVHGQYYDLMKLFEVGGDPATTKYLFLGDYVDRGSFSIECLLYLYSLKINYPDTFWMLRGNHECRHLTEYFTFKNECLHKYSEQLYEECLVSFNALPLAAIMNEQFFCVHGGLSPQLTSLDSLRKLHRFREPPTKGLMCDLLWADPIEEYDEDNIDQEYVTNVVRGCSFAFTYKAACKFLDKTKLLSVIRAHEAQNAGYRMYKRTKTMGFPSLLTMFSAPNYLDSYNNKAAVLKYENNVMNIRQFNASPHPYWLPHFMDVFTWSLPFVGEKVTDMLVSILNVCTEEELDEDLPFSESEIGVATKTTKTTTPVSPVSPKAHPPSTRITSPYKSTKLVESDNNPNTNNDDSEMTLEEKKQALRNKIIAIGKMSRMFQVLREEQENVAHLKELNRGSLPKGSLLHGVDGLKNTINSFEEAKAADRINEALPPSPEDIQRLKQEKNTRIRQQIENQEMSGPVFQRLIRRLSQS
# [5] = growth suppression of PTEN-null colon cells, dose response, cell-based, HCT116 PTEN knockout (AID 1047); type: functional;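 note: HCT116 colon tumor cells with PTEN knocked out; cells exposed to compound for 60 hours before readout; potency for loss of cell viability measured by luminescence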
# [6] = C. albicans growth with fluconazole, confirmation, fluorescence, retest (AID 2467); type: functional, cell-based
# [7] = growth suppression of beta-catenin-knockout colon cells, dose response, cell-based, HCT116, human colon tumor (AID 1045); type: functional;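 note: HCT116 colon tumor cells with beta catenin knocked out; cells exposed to compound for 60 hours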
# [8] = inhibitors of intracellular T. cruzi replication, confirmation, NIH3T3 host cells, beta-gal luminescence (AID 2044); type: functional, cell-based;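 note: intracellular parasites grown in NIH/3T3 mouse fibroblasts as host cells; luminescent beta-galactosidase reporter signal from transgenic T. cruzi replicating inside host cells; inhibitors lower the luminescence signal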
# [9] = molecular target: ATP-dependent molecular chaperone HSP82 (Candida albicans (strain WO-1) (Yeast), UniProt C4YTQ8); assay: loss of DOC-induced GRE-beta-galactosidase reporter signal, dose response, Hsp90 inhibitor project, S. cerevisiae, luminescence (AID 2400); type: functional, cell-based;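 note: beta-galactosidase luminescence from glucocorticoid response element reporter as proxy for Hsp90 function; inhibitor potency where signal loss means Hsp90 inhibition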
# [10] = NIH-3T3 fibroblast cytotoxicity, dose response, cytotoxicity control, cell-based, fluorescence, Alamar Blue, secondary assay (AID 2327); type: functional;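 note: NIH-3T3 mouse fibroblasts cultured with fluconazole at 8 µg/mL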
# [11] = cytotoxicity toward NIH3T3 fibroblasts, dose response, counter-screen, cell-based, ATP luminescence, mouse fibroblasts (AID 2010); type: functional;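 note: cells exposed to compound for about 90 hours before reading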
# Estrogen receptor = molecular target: T4, Estrogen receptor (Homo sapiens, UniProt P03372);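 note: potency for inhibiting coactivator peptide recruitment to the receptor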
# T4 sequence (P03372 whole entry): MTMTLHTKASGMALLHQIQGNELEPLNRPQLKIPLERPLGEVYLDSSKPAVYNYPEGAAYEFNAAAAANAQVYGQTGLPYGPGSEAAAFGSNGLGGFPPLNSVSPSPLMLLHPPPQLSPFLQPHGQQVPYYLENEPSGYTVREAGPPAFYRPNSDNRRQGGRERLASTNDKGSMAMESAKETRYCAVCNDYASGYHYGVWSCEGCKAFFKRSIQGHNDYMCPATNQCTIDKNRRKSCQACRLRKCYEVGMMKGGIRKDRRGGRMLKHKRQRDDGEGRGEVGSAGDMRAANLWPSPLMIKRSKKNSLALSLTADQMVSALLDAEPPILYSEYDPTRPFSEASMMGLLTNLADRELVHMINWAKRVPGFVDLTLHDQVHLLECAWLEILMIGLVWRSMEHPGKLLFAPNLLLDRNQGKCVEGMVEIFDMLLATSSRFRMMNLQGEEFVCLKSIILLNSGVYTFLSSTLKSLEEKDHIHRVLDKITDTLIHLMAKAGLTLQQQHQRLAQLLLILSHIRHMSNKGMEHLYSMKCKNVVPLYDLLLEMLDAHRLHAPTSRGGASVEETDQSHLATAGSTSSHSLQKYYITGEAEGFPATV
# Large T antigen = Large T antigen (Simian virus 40, UniProt P03070); type: functional, Betapolyomavirus macacae;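 note: Confirmatory-stage PubChem screen for compounds that inhibit SV40 T antigen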
# Estrogen receptor beta = Estrogen receptor beta (Homo sapiens, UniProt Q92731);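 note: recombinant ER-beta bound to coactivator SRC1 peptide in presence of estradiol agonist; inhibitors block coactivator peptide binding and lower the FRET signal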
# [12] = molecular target: T5, Voltage-gated N-type calcium channel alpha-1B subunit/Amyloid beta A4 precursor protein-binding family A member 1 (Homo sapiens, UniProt Q00975+Q02410); type: protein assay
# [13] = molecular target: Induced myeloid leukemia cell differentiation protein Mcl-1 (Homo sapiens, UniProt Q07820); assay: MCL1-BIM BH3 interaction inhibitors, dose response, biochemical, fluorescence polarization, BIM-BH3 peptide, 1536-well (AID 2217)
# [14] = molecular target: T5, Voltage-gated N-type calcium channel alpha-1B subunit/Amyloid beta A4 precursor protein-binding family A member 1; type: protein assay; remark: listed apart in the source
# Bcl-2-like protein 1 = Bcl-2-like protein 1 (Homo sapiens, UniProt Q07817); assay: BCL-XL inhibitors, dose response, selectivity assay for MCL1 inhibitor project, biochemical, fluorescence polarization, 1536-well (AID 2218)
# H4 = assay: Luminescence Cell-Based Dose Response HTS to Identify Activators of 5'UTR Stem-Loop Driven Prion Protein mRNA Translation in H4 Neuroglioblastoma Cells. [Related pubchem assays: 1829 (Project Summary), 1814 (Primary HTS)]; type: functional; settings: Homo sapiens
# HeLa = assay: HeLa cell cytotoxicity, dose response, cytotoxicity control for MITF activator project, CellTiter-Glo luminescence, cherry-pick samples (AID 540259); type: functional, cell-based; settings: Homo sapiens
# [15] = Luminescence Cell-Based Dose Response to Identify Activators of Luciferase Translation or Activity in H4-C Neuroglioblastoma Cells. [Related pubchem assays: 1829 (Project Summary), 1814 (Primary HTS)]; type: functional
# [16] = Luminescence Cell-Based Dose Confirmation to Identify Activators of 5'UTR Stem-Loop Driven Alpha-Synuclein mRNA Translation in H4 Neuroglioblastoma Cells. [Related pubchem assays: 1829 (Project Summary), 1814 (Primary HTS)]; type: functional
# [17] = Luminescence Cell-Based Dose Response HTS to Identify Activators of Luciferase Translation or Activity in H4 […] Cells. [Related pubchem assays: 1829 (Project Summary), 1814 (Primary HTS)]; type: functional
# [18] = Luminescence Cell-Based Dose Confirmation HTS to Identify Activators of 5'UTR Stem-Loop Driven Alpha-Synuclein mRNA Translation in H4 Neuroglioblastoma Cells. [Related pubchem assays: 1829 (Project Summary), 1814 (Primary HTS)]; type: functional
# [19] = Luminescence Cell-Based Dose Response to Identify Activators of 5'UTR Stem-Loop Driven Prion Protein mRNA Translation in H4-C Neuroglioblastoma Cells. [Related pubchem assays: 1829 (Project Summary), 1814 (Primary HTS)]; type: functional
# T5 sequence (Q00975 whole entry): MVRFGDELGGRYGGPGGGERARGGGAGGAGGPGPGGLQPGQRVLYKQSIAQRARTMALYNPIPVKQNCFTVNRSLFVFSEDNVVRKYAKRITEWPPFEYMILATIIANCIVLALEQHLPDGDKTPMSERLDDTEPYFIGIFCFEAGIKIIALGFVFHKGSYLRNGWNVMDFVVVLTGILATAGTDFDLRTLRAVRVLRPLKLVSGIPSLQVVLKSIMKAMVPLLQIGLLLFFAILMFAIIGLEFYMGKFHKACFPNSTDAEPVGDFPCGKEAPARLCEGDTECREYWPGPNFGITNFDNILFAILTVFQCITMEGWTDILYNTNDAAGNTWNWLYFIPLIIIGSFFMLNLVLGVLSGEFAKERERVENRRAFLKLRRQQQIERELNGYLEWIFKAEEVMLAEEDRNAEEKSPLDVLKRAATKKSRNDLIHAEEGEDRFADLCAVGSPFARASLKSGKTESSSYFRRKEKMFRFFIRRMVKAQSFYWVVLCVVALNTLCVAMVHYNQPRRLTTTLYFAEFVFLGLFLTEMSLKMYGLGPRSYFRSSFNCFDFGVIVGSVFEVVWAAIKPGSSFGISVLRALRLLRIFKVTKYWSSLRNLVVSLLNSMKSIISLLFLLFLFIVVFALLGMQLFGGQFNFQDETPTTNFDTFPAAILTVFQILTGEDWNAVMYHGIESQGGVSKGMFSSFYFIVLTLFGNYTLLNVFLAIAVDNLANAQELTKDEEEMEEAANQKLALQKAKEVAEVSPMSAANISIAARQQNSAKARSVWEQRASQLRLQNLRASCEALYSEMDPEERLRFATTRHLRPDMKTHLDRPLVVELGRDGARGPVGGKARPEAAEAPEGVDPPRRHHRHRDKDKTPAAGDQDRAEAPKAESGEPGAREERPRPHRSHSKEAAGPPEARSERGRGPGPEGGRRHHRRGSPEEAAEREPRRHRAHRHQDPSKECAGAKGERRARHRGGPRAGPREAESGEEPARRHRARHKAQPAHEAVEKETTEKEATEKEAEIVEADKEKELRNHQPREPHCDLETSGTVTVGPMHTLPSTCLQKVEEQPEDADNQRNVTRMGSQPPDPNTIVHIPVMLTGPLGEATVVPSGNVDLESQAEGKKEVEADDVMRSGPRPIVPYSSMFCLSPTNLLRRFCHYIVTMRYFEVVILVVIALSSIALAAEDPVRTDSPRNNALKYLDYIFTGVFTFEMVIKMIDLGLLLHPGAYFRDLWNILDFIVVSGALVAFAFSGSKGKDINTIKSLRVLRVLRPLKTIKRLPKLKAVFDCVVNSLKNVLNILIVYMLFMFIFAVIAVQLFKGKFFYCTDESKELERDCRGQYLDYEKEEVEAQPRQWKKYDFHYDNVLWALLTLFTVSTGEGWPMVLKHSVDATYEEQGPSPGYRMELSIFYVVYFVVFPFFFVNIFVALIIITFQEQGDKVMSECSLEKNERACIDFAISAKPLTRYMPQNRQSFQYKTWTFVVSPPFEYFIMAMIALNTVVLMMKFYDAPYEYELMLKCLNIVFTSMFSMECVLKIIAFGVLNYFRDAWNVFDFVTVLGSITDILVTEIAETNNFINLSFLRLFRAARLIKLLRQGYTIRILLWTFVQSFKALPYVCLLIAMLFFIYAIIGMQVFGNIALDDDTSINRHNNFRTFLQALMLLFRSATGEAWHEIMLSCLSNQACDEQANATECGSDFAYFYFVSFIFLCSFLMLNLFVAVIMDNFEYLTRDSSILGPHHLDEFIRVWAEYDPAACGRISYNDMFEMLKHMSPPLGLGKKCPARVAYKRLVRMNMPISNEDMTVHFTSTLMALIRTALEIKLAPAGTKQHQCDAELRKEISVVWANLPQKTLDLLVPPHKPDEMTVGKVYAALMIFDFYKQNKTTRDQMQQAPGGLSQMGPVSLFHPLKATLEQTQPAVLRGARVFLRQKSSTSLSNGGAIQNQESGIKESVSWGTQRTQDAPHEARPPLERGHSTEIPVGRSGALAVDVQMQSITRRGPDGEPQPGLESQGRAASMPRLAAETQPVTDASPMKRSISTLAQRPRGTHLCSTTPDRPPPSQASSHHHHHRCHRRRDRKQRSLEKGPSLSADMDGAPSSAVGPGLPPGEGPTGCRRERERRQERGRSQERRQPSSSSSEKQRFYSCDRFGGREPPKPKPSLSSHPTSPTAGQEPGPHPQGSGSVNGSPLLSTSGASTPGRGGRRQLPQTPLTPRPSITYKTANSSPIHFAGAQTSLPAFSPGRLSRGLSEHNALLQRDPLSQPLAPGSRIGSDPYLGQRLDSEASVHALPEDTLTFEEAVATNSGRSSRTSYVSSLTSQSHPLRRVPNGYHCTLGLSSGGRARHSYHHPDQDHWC
# T5 sequence (Q02410 whole entry): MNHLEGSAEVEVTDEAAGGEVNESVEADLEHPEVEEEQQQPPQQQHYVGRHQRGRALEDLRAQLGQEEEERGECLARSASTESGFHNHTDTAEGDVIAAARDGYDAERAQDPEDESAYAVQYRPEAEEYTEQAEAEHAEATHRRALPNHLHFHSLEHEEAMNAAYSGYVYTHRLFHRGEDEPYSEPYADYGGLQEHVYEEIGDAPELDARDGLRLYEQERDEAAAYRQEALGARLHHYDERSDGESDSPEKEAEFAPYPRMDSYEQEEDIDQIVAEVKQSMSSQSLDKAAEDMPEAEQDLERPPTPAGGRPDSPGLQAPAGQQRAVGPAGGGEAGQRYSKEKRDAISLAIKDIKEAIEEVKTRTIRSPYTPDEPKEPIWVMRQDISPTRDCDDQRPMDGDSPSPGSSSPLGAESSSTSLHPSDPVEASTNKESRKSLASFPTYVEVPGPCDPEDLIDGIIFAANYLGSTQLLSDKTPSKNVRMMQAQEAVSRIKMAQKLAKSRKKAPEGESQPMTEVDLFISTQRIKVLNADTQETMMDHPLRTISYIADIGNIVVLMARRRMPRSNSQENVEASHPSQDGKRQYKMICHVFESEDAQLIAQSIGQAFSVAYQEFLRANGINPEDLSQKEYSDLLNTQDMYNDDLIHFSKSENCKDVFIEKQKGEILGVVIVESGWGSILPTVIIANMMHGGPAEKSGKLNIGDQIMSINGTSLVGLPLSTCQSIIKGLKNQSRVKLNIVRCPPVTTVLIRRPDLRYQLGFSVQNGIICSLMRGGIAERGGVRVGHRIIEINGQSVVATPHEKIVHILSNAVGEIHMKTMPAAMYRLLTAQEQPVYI
# Bcl-2-like protein 1, sequence (Q07817 whole entry): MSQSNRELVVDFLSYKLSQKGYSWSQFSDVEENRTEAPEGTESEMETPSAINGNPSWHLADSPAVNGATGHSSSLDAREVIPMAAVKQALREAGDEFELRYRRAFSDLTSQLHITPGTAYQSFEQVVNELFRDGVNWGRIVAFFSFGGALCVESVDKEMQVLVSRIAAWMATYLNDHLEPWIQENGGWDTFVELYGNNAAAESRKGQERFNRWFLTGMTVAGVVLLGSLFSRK
# ATP-dependent molecular chaperone HSP82, sequence (C4YTQ8 whole entry): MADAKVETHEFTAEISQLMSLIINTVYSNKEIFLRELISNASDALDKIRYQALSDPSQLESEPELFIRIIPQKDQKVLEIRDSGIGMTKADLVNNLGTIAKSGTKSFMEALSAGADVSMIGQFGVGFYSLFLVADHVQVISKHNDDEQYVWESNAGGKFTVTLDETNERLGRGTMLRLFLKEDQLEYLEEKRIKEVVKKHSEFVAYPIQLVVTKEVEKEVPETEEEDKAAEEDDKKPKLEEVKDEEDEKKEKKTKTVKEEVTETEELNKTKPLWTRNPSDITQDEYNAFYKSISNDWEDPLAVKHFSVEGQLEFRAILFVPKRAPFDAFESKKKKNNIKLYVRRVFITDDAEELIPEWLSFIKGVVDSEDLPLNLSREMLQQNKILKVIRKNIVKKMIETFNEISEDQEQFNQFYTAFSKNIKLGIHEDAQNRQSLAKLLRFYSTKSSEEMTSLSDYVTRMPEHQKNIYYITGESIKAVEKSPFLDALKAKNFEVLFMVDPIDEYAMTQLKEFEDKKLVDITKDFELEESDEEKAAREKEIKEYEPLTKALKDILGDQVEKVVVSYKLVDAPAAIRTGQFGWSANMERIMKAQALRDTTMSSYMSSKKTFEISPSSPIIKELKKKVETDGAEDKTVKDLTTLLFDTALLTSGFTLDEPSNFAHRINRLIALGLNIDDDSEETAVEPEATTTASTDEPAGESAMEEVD
# Estrogen receptor beta, sequence (Q92731 whole entry): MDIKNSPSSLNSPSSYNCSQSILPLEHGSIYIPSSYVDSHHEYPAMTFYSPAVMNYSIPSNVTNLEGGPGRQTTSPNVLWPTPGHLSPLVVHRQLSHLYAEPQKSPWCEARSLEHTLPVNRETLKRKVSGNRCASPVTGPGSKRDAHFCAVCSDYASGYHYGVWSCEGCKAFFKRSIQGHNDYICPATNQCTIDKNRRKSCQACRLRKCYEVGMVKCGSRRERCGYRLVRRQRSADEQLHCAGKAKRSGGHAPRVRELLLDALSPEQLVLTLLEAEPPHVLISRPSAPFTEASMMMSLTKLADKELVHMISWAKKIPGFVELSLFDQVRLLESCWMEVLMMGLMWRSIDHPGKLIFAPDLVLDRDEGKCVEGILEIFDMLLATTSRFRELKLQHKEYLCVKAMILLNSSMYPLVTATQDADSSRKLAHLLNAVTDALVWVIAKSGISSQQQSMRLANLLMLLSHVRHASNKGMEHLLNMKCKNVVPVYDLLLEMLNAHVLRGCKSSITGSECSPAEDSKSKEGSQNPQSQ
# Induced myeloid leukemia cell differentiation protein Mcl-1, sequence (Q07820 whole entry): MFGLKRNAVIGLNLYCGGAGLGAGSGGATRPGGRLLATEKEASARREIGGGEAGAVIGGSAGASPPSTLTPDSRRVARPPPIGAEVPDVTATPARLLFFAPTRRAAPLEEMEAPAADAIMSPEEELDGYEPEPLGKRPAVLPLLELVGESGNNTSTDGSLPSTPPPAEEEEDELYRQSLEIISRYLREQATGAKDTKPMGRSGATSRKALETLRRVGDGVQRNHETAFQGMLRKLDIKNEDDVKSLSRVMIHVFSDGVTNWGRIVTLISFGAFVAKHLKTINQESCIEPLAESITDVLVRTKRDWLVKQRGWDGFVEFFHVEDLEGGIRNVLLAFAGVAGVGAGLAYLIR
smiles,measurement,setting,value
CCOc1cc(/C=C2/NC(=S)NC2=O)ccc1OCc1ccc([N+](=O)[O-])cc1,AC50,[1],8.19 µM (active)
same,EC50,Streptococcus,> 150 µM (not active)
same,EC50,[2],3.85 µM (active)
same,EC50,Streptokinase A,8.31 µM (active)
same,IC50,[3],3.76 µM (active)
O=C(CNc1ccc2ccccc2c1)N/N=C/c1ccc([N+](=O)[O-])o1,AC50,[1],4.95 µM (active)
same,EC50,Streptococcus,> 150 µM (not active)
same,EC50,[4],> 180 µM (inactive)
same,EC50,[5],14.2 µM (active)
same,EC50,[6],3.85 µM (active)
same,EC50,[2],11.1 µM (active)
same,EC50,Streptokinase A,> 150 µM (not active)
same,EC50,[7],15.9 µM (active)
same,EC50,cells,0.019 µM (active)
same,EC50,[8],< 0.1 µM (active)
same,EC50,[9],> 160 µM (inactive)
same,EC50,[10],> 160 µM (inactive)
same,EC50,[11],> 60 µM (not active)
CCOc1ccc(N2CSC3=C(C#N)C(c4ccco4)CC(=O)N3C2)cc1 (configuration not stated),IC50,Estrogen receptor,> 50 µM (not active)
same,IC50,Large T antigen,13.8 µM (active)
same,IC50,Estrogen receptor beta,> 50 µM (not active)
same,IC50,[12],9.68 µM (active)
same,IC50,[13],> 109 µM (not active)
same,IC50,[14],21.6 µM (active)
same,IC50,Bcl-2-like protein 1,> 109 µM (not active)
CS(=O)(=O)N1N=C(c2ccc(Br)cc2)CC1c1ccc2c(c1)OCO2 (configuration not stated),EC50,H4,< 0.1 µM (active)
same,AC50,HeLa,61.3 µM (active)
same,EC50,[15],0.344 µM (active)
same,EC50,[16],0.467 µM (active)
same,EC50,[17],< 0.1 µM (active)
same,EC50,[18],0.174 µM (active)
same,EC50,[19],0.328 µM (active)
